Source: ChEMBL document CHEMBL4507300 (2021)

Tests used:
[1] = target: Histamine H1 receptor (Homo sapiens, UniProt P35367); test: GPCRScan assay: inhibition of H1; parameters: radioligand conc. used [nm] 0.6 – 2.0, parental cells stable HEK
[2] = target: AP2-associated protein kinase 1 (Homo sapiens) (UniProt Q2M2I8); conditions: Compound concentration 1000.0 nM
[3] = test system: Tyrosine-protein kinase ABL1 (Homo sapiens), P00519 [Q252H]; conditions: Compound concentration 1000.0 nM
[4] = target: Tyrosine-protein kinase ABL2 (Homo sapiens) (UniProt P42684); conditions: Compound concentration 1000.0 nM
[5] = target: Activin receptor type-1B (Homo sapiens) (UniProt P36896); conditions: Compound concentration 1000.0 nM
[6] = target: ALK tyrosine kinase receptor (Homo sapiens) (UniProt Q9UM73); conditions: Compound concentration 1000.0 nM
[7] = target: BMP-2-inducible protein kinase (Homo sapiens) (UniProt Q9NSY1); conditions: Compound concentration 1000.0 nM
[8] = target: Calcium/calmodulin-dependent protein kinase type 1G (Homo sapiens) (UniProt Q96NX5); conditions: Compound concentration 1000.0 nM
[9] = target: Calcium/calmodulin-dependent protein kinase type IV (Homo sapiens) (UniProt Q16566); conditions: Compound concentration 1000.0 nM
[10] = target: Calcium/calmodulin-dependent protein kinase kinase 2 (Homo sapiens) (UniProt Q96RR4); conditions: Compound concentration 1000.0 nM
[11] = target: Cyclin-dependent kinase 3 (Homo sapiens) (UniProt Q00526); conditions: Compound concentration 1000.0 nM
[12] = target: Cyclin-dependent kinase 8 (Homo sapiens) (UniProt P49336); conditions: Compound concentration 1000.0 nM
[13] = target: Macrophage colony-stimulating factor 1 receptor (Homo sapiens) (UniProt P07333); conditions: Compound concentration 1000.0 nM
[14] = target: Casein kinase II subunit alpha (Homo sapiens) (UniProt P68400); conditions: Compound concentration 1000.0 nM
[15] = target: Epithelial discoidin domain-containing receptor 1 (Homo sapiens) (UniProt Q08345); conditions: Compound concentration 1000.0 nM
[16] = test system: Epidermal growth factor receptor (Homo sapiens), P00533 [UNDEFINED MUTATION]; conditions: Compound concentration 1000.0 nM
[17] = test system: Epidermal growth factor receptor (Homo sapiens), P00533 [UNDEFINED MUTATION]; conditions: Compound concentration 1000.0 nM; remark: listed apart in the source
[18] = target: Mitogen-activated protein kinase 15 (Homo sapiens) (UniProt Q8TD08); conditions: Compound concentration 1000.0 nM
[19] = test system: Receptor-type tyrosine-protein kinase FLT3 (Homo sapiens), P36888 [R834Q]; conditions: Compound concentration 1000.0 nM
[20] = target: Vascular endothelial growth factor receptor 3 (Homo sapiens) (UniProt P35916); conditions: Compound concentration 1000.0 nM
[21] = target: G protein-coupled receptor kinase 3 (Homo sapiens) (UniProt P35626); conditions: Compound concentration 1000.0 nM
[22] = target: Glycogen synthase kinase-3 alpha (Homo sapiens) (UniProt P49840); conditions: Compound concentration 1000.0 nM
[23] = test system: Mast/stem cell growth factor receptor Kit (Homo sapiens), P10721 [D816H]; conditions: Compound concentration 1000.0 nM
[24] = test system: Mast/stem cell growth factor receptor Kit (Homo sapiens), P10721 [V559D]; conditions: Compound concentration 1000.0 nM
[25] = target: MAP/microtubule affinity-regulating kinase 3 (Homo sapiens) (UniProt P27448); conditions: Compound concentration 1000.0 nM
[26] = target: MAP kinase-interacting serine/threonine-protein kinase 2 (Homo sapiens) (UniProt Q9HBH9); conditions: Compound concentration 1000.0 nM
[27] = target: Serine/threonine-protein kinase 3 (Homo sapiens) (UniProt Q13188); conditions: Compound concentration 1000.0 nM
[28] = target: Mitogen-activated protein kinase 12 (Homo sapiens) (UniProt P53778); conditions: Compound concentration 1000.0 nM
[29] = target: Calcium-dependent protein kinase 1 (Plasmodium falciparum) (UniProt P62344); conditions: Compound concentration 1000.0 nM
[30] = target: Phosphorylase b kinase regulatory subunit alpha, liver isoform (Homo sapiens) (UniProt P46019); conditions: Compound concentration 1000.0 nM
[31] = target: Serine/threonine-protein kinase pim-3 (Homo sapiens) (UniProt Q86V86); conditions: Compound concentration 1000.0 nM
[32] = target: Ribosomal protein S6 kinase beta-1 (Homo sapiens) (UniProt P23443); conditions: Compound concentration 1000.0 nM
[33] = target: Serine/threonine-protein kinase 16 (Homo sapiens) (UniProt O75716); conditions: Compound concentration 1000.0 nM
[34] = target: Serine/threonine-protein kinase 35 (Homo sapiens) (UniProt Q8TDR2); conditions: Compound concentration 1000.0 nM
[35] = target: STE20/SPS1-related proline-alanine-rich protein kinase (Homo sapiens) (UniProt Q9UEW8); conditions: Compound concentration 1000.0 nM
[36] = target: Serine/threonine-protein kinase TAO2 (Homo sapiens) (UniProt Q9UL54); conditions: Compound concentration 1000.0 nM
[37] = target: Serine/threonine-protein kinase TBK1 (Homo sapiens) (UniProt Q9UHD2); conditions: Compound concentration 1000.0 nM
[38] = target: Activated CDC42 kinase 1 (Homo sapiens) (UniProt Q07912); conditions: Compound concentration 1000.0 nM
[39] = target: BDNF/NT-3 growth factors receptor (Homo sapiens) (UniProt Q16620); conditions: Compound concentration 1000.0 nM
[40] = target: Dual specificity protein kinase TTK (Homo sapiens) (UniProt P33981); conditions: Compound concentration 1000.0 nM
[41] = target: Vascular endothelial growth factor receptor 2 (Homo sapiens) (UniProt P35968); conditions: Compound concentration 1000.0 nM
[42] = target: Mitogen-activated protein kinase kinase kinase 19 (Homo sapiens) (UniProt Q56UN5); conditions: Compound concentration 1000.0 nM
[43] = target: D(1A) dopamine receptor (Homo sapiens) (UniProt P21728); conditions: Compound concentration 10.0 uM
[44] = target: D(2) dopamine receptor (Homo sapiens) (UniProt P14416); conditions: Compound concentration 10.0 uM
[45] = target: Muscarinic acetylcholine receptor M2 (Homo sapiens) (UniProt P08172); conditions: Compound concentration 10.0 uM

Chain of Epidermal growth factor receptor (Homo sapiens), P00533 [UNDEFINED MUTATION] (P00533 whole entry, looked up, change not shown): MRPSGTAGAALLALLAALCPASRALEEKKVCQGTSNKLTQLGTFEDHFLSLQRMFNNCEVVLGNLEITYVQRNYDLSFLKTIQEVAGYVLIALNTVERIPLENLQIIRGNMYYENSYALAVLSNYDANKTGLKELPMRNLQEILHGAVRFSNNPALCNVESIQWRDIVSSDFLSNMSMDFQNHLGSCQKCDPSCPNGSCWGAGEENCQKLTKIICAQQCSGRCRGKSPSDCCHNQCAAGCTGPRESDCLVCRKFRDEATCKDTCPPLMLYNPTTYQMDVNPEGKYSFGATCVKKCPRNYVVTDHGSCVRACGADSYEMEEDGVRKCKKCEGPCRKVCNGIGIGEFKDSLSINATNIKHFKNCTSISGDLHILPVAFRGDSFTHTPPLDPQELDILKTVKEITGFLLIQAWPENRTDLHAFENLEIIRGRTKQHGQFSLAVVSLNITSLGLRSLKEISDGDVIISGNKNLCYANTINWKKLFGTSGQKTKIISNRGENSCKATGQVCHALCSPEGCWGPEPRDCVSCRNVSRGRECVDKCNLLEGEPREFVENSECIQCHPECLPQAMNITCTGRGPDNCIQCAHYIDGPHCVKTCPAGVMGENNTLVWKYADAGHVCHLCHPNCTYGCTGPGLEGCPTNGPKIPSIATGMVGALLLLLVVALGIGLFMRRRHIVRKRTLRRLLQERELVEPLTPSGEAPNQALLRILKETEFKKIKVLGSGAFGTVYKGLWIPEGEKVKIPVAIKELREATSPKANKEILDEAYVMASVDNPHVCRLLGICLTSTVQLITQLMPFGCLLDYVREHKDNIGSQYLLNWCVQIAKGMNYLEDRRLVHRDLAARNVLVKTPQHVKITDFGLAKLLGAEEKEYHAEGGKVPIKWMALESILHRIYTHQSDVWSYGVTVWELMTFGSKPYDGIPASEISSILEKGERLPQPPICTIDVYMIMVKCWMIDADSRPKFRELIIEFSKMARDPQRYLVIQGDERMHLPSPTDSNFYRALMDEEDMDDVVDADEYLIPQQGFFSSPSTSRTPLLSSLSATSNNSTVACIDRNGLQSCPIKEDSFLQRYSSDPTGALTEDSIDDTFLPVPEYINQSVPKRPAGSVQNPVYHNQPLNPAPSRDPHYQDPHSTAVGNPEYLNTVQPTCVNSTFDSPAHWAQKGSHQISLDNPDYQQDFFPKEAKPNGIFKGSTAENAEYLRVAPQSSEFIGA
Chain of MAP kinase-interacting serine/threonine-protein kinase 2 (Homo sapiens) (Q9HBH9 whole entry, looked up): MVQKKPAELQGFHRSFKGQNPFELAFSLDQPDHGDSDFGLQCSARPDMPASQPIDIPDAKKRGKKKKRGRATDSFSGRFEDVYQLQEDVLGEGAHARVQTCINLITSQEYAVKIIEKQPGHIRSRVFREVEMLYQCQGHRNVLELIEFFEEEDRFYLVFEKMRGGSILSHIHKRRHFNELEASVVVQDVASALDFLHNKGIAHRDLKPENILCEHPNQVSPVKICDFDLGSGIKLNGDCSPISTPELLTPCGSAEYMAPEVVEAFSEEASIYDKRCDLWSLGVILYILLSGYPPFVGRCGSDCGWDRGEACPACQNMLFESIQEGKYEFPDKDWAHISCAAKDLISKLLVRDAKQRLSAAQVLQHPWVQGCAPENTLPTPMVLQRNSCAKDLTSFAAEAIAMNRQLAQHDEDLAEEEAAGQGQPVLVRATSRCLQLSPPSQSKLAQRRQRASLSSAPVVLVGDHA
Chain of Macrophage colony-stimulating factor 1 receptor (Homo sapiens) (P07333 whole entry): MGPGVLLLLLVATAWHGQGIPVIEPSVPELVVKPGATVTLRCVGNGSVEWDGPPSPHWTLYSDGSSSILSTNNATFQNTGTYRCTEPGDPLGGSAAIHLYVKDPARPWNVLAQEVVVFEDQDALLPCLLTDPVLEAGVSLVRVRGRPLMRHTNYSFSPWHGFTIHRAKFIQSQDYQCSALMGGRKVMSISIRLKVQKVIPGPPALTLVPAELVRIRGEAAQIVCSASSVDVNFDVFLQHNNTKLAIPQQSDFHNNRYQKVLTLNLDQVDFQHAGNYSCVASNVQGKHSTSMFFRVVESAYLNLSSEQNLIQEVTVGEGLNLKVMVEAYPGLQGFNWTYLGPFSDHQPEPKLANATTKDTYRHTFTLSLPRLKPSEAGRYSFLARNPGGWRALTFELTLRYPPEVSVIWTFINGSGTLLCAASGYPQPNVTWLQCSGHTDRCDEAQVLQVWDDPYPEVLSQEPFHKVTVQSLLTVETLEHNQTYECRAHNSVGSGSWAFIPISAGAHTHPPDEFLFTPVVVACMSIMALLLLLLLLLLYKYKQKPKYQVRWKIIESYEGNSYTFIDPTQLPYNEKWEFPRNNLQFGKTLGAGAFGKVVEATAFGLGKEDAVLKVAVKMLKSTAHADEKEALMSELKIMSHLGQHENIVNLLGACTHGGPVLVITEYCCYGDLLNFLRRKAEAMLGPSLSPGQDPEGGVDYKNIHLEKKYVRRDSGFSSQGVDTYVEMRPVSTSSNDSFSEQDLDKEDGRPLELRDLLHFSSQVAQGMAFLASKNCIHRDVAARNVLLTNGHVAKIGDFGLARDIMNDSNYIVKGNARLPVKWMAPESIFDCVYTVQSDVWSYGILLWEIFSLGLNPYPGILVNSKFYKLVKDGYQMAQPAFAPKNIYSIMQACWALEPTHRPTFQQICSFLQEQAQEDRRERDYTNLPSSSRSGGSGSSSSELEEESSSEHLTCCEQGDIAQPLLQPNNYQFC
Chain of Phosphorylase b kinase regulatory subunit alpha, liver isoform (Homo sapiens) (P46019 whole entry, canonical isoform): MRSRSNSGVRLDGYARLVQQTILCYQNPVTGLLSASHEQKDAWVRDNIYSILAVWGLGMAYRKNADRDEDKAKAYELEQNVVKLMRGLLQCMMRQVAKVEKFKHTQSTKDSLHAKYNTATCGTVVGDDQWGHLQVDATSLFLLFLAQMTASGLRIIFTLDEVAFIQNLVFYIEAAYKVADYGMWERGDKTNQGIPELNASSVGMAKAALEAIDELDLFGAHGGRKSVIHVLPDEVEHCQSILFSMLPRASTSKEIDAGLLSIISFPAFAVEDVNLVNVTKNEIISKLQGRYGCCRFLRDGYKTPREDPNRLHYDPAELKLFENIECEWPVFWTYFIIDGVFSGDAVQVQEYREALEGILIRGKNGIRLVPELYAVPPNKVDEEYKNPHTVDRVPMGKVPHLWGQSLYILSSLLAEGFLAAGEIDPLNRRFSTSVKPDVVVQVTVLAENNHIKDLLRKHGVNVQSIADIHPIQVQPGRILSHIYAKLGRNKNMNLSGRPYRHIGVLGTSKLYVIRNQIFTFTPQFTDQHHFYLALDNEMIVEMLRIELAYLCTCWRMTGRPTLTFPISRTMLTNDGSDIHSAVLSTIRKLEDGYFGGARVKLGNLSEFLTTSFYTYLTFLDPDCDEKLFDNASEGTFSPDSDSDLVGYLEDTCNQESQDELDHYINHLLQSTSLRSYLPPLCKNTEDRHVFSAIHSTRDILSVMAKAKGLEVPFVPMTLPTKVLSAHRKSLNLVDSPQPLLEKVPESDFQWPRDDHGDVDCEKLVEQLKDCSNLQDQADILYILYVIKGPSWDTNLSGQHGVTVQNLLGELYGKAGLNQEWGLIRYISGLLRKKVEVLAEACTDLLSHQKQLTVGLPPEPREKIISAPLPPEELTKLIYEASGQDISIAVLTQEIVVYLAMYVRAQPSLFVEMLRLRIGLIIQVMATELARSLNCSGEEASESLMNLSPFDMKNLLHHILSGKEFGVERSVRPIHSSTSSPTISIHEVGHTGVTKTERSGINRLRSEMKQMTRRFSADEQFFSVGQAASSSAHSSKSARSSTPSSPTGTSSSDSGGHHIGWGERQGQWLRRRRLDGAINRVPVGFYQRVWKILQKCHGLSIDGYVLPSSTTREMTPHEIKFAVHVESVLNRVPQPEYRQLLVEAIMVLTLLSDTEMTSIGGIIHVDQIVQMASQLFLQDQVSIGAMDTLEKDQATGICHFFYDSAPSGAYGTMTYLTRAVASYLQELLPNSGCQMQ
Chain of Calcium/calmodulin-dependent protein kinase type 1G (Homo sapiens) (Q96NX5 whole entry): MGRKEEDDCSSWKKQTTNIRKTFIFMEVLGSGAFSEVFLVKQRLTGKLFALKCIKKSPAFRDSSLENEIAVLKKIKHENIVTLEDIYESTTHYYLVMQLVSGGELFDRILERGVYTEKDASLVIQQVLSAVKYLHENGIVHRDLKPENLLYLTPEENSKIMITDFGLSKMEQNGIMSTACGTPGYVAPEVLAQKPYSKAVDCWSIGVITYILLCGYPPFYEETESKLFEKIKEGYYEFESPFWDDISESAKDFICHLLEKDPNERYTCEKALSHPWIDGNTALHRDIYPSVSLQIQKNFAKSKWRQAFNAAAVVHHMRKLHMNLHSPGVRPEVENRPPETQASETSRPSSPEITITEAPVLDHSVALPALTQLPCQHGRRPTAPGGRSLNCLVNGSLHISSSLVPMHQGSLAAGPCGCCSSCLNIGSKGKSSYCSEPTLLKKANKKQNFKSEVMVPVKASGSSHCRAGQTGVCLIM
Chain of Mitogen-activated protein kinase 12 (Homo sapiens) (P53778 whole entry): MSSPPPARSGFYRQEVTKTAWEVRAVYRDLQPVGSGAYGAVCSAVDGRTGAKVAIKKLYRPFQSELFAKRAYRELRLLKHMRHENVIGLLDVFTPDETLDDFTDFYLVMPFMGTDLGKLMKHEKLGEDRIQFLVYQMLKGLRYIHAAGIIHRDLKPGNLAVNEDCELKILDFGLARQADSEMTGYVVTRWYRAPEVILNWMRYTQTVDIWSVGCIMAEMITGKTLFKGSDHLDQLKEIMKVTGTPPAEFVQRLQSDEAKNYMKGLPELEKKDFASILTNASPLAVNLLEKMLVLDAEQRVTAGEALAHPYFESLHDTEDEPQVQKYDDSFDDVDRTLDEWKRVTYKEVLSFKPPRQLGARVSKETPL

Compound `COc1cccc(CNC(=O)c2nc3scc(COCc4ccc(C(=O)O)cc4)c3c(=O)[nH]2)c1` [T-26c] has a Ki [1] of 98 nM, a residual activity [2] of 100% and a residual activity [3] of 86.4%. It also gave a residual activity [4] of 82.2%, a residual activity [5] of 89.4% and a residual activity [6] of 92%. It also gave a residual activity [7] of 92.3%, a residual activity [8] of 100% and a residual activity [9] of 100%. For the same compound, the residual activity [10] was 100%, the residual activity [11] was 100% and the residual activity [12] was 73.4%. It also gave a residual activity [13] of 100%, a residual activity [14] of 90.7% and a residual activity [15] of 100%. The residual activity [16] was 76%, the residual activity [17] was 74% and the residual activity [18] was 82.4%. It also gave a residual activity [19] of 77.9%, a residual activity [20] of 100% and a residual activity [21] of 72.5%. For the same compound, the residual activity [22] was 100%, the residual activity [23] was 59% and the residual activity [24] was 99.1%. For the same compound, the residual activity [25] was 100%, the residual activity [26] was 73.2% and the residual activity [27] was 100%. The residual activity [28] was 92.1%, the residual activity [29] was 72.7% and the residual activity [30] was 83.8%. For the same compound, the residual activity [31] was 100%, the residual activity [32] was 96.1% and the residual activity [33] was 87.2%. For the same compound, the residual activity [34] was 93.6%, the residual activity [35] was 100% and the residual activity [36] was 59.8%. The residual activity [37] was 94%, the residual activity [38] was 89.6% and the residual activity [39] was 67.1%. The residual activity [40] was 92.8%, the residual activity [41] was 70% and the residual activity [42] was 79.2%. It also gave an inhibition [43] of -6.24%, an inhibition [44] of 7.09% and an inhibition [45] of -2.95%.
